{"source": "patent US20090105172A1", "about": "“Stabilized Aptamers to PSMA and Their Use as Prostate Cancer Therapeutics” (priority 2005, published 2009)", "molecules": {"B1": {"name": "GGGAGGACGAUGCGGACCGAAAAAGACCUGAfCfIUfCfUAfUAfCfUAAGfUfCfUAf CGfTUIJfCfCfCAGAfCGAfCfUfCGfCfCfCGA (nucleic acid)", "chain": "GGGAGGACGAUGCGGACCGAAAAAGACCUGACUUCUAUACUAAGUCUACGUUCCCAGACGACUCGCCCGA", "modifications": "2'-fluoro at CU, RNA at AG, backbone not given here", "notes": "existing PSMA specific aptamer of rRfY composition from U.S. Ser. No. 09/978,969"}}, "key": {"[1]": {"settings": "docetaxel in combination with prednisone (cited clinical trial, not the aptamer), every three weeks; cited from earlier work"}, "[2]": {"test": "Plasma stability time course assay", "format": "in vitro ADME", "settings": "95% human plasma, 37° C.", "protocol": "Plasma stability of each construct was measured using a plasma stability time course assay over 0, 1, 3, 10, 30, and 100 hours. A reaction was set up for each aptamer tested in an eppendorf tube using 95% human plasma (20 μl per time point), an appropriate concentration of aptamer (determined by the highest predicted dosing level (CMax)), and a sufficient amount of spiked 5′-end labeled aptamer such that a 1:10 dilution of the reaction will be over 1000 cpm, brought to total volume with 1×PBS. When assembling the reaction, the plasma was added last, and the reactions were immediately added to a 37° C. heat block. A reaction for each aptamer tested containing 1×PBS instead of plasma was used as a 0 hour time point. At each designated time point, 20 μl was withdrawn from each reaction and added to an appropriately labeled eppendorf tube containing 200 μl of formamide loading dye, and was immediately snap frozen in liquid nitrogen and stored at −20° C. After all the samples were collected 20 μl of each plasma sample/loading dye was aliquoted into separate tubes, and 2 μl of 1% SDS was added to each tube (final SDS concentration 0.1%). The samples containing 0.1% SDS were heated at 90° C. for 10-15 minutes. […]\nThe percentage of the parent aptamer remaining for each time-point was determined by quantifying the parent aptamer band and dividing by the total counts in the lane. […]"}, "[3]": {"molecular_target": "PSMA NAALADase activity (Homo sapiens, UniProt Q04609)", "sequence (Q04609 with tags, fused parts or gaps limits assumed)": "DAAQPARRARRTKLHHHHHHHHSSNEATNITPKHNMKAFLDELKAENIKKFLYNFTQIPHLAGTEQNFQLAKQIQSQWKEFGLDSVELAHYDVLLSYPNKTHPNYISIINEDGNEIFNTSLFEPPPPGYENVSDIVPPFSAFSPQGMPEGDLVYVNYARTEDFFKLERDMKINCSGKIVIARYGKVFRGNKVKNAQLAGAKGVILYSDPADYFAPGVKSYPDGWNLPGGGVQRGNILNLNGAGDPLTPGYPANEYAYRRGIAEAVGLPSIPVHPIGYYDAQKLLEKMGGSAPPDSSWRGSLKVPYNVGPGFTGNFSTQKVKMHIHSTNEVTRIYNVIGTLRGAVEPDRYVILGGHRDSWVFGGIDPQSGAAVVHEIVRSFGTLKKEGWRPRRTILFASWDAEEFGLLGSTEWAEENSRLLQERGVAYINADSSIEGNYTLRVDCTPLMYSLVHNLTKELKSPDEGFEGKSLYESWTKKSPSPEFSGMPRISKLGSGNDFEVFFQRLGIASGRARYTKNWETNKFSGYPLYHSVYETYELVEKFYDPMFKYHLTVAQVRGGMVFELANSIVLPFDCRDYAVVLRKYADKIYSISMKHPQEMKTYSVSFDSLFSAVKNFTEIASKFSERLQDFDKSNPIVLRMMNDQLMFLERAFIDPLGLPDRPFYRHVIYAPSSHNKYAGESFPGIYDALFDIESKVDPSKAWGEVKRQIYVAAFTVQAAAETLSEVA", "test": "NAALADase inhibition assay", "format": "biochemical", "settings": "relative to parent", "protocol": "These point mutant constructs were assessed for activity in terms of inhibition of PSMA NAALADase activity. The NAALADase assay was performed in 96 well format. PSMA aptamers were serially diluted in 1× reaction buffer (40 mM Tris-HCl, pH 7.4, 0.1 mM ZnSO4, 0.1 mg/in L BSA) in a standard 96 well plate to be tested at a final concentration range from 30 pM to 1 μM. The enzyme was prepared by diluting 30 μL of 100 nM PSMA into 8 mL of reaction buffer, and kept cool on ice. The substrate was prepared by adding 19 μl of NAAG [Glutamate-3,4-^3H], 50.8 Ci/mmol, 19.7 μM (Perkin-Elmer, Wellesley, Mass., NET1082) into 2.2 mL of reaction buffer.\nFollowing preparation of all reagents, 4 μl of each serially diluted aptamer was added to a separate 96 well plate (the reaction plate). 76 μl of diluted enzyme was added to the corresponding wells containing aptamer. 80 μl of reaction buffer was added to one column of wells to serve as a background control. The diluted substrate and reaction plate were then moved to a room at 37° C. and allowed to equilibrate for 10 minutes. After temperature equilibration, 20 μl of the prepared substrate was added to each well using a 12 channel pipet for a final volume of 100 μl/well, and a final concentration of […] enzyme and 30 nM substrate per well. A column of wells containing enzyme and substrate only was used as a high control. The aptamer/enzyme/substrate reaction was incubated at 37° C. for 15 minutes, and stopped by the addition of 100 μl of quench buffer (100 mM sodium phosphate, pH 7.4, 2 mM EDTA).\nTo separate the cleavage products, […] and Glutamate, from the substrate, an AG 1-X8, 200-400 mesh, formate resin (BioRad, Hercules, Calif., # 140-1454) was used. The resin was prepared by forming a 1:1 slurry in H2O, and adding 140 μl per 96 well using a Multiscreen filter plate (Multiscreen, 1.2 μm filter plates (Millipore, Billerica, Mass., # MABVN1250)). […] The plate was sealed and read using a Packard Topcount Microplate Scintillation Counter. […]"}, "[4]": {"tested_on": "LNCaP cells (PSMA+)", "test": "LNCaP FACS binding assay with fluorescein-labeled aptamers", "format": "cell-based", "settings": "FACS histogram", "protocol": "To prepare aptamers for the FACS assay, PSMA aptamers were serially diluted (0-1 uM) in FACS buffer (1×DPBS w/Ca^++/Mg^++ (Gibco, Carlsbad, Calif.) supplemented with 10 mg/mL salmon sperm DNA & 0.2% Na Azide), in a V-bottom 96 well plate, at the concentrations to be tested. LNCaP and PC-3 cells (ATCC, Manassas, Va.) were harvested with trypsin, and 200,000 cells/well were counted, washed once with 1×DPBS (with Ca^++ and Mg^+) and resuspended in 200 μl of FACS Buffer. The 200 μl of cells in FACS buffer were added to individual wells of a new 96 well plate, pelleted by centrifugation (1300 rpm for 5 minutes), and resuspended in 100 μl of the appropriate concentration of diluted aptamer. FACS buffer, a-PSMA antibody (3C6) (Northwest Biotherapeutics, Bothell, Wash., Cat #: 60-5002) and an irrelevant fluorescein isothiocyanate (“FITC”) mouse IgG1 isotype control antibody (BD Pharmingen, San Diego, Calif., Cat#: 554679) were used as controls. The wells of aptamer/cell mixture were incubated at room temperature for 20-30 minutes.\nAfter incubation, 180 μl of FACS buffer (plus 10 mg/mL ssDNA, and 0.2% Na Azide) was added to each well to quench the reaction and cells were pelleted by centrifugation.\nAnti-fluorescein/Oregon Green®, rabbit IgG fraction, Alexa Fluor® 488 conjugate (Molecular Probes, Eugene, Oreg., Cat#: A11090) was diluted 1:100 in FACS buffer (100 μl/well) as the secondary antibody for the aptamer-FITC conjugates and FITC-mouse IgG isotype control. FITC Rat anti-mouse IgG1 (A85-1) (BD Pharmingen, San Diego, Calif., Cat#: 553443) was diluted in 1:100 in FACS Buffer as the secondary for the α-PSMA antibody. After centrifugation, the cell pellets were resuspended in 100 μl of the appropriate diluted secondary antibody, and incubated 10 minutes at room temperature. After incubation, 180 μl of FACS buffer was added to each well to quench the reaction, and cells were pelleted by centrifugation.\nA tertiary antibody which recognizes the Alexa Fluor® 488 goat anti-rabbit IgG was prepared to further amplify the Alexa Fluor signal. Alexa Fluor® 488 goat anti-rabbit IgG (H+ L) (Molecular Probes, Eugene, Oreg., Cat#: A11034) was diluted 1:100 in FACS buffer, and the pelleted cells were resupsended in 100 μl of the tertiary antibody and incubated for 10 minutes at room temperature. […]\n(§1) Cell samples were analyzed on a FACS Scan machine (Becton Dickinson, San Jose, Calif.) under the following parameters: FSC/SSC, FL-1/FSC, FL-3/FSC. The unstained and/or isotype controls were used to establish gating parameters, and the data was analyzed using Cell Quest Pro software version 5.1.1 (Becton Dickinson Immunocytometry Systems, San Jose, Calif.)."}, "[5]": {"tested_on": "PC-3 cells (PSMA−)", "test": "FACS binding assay, control cell line", "format": "cell-based", "settings": "FACS histogram", "protocol": "To prepare aptamers for the FACS assay, PSMA aptamers were serially diluted (0-1 uM) in FACS buffer (1×DPBS w/Ca^++/Mg^++ (Gibco, Carlsbad, Calif.) supplemented with 10 mg/mL salmon sperm DNA & 0.2% Na Azide), in a V-bottom 96 well plate, at the concentrations to be tested. LNCaP and PC-3 cells (ATCC, Manassas, Va.) were harvested with trypsin, and 200,000 cells/well were counted, washed once with 1×DPBS (with Ca^++ and Mg^+) and resuspended in 200 μl of FACS Buffer. The 200 μl of cells in FACS buffer were added to individual wells of a new 96 well plate, pelleted by centrifugation (1300 rpm for 5 minutes), and resuspended in 100 μl of the appropriate concentration of diluted aptamer. FACS buffer, a-PSMA antibody (3C6) (Northwest Biotherapeutics, Bothell, Wash., Cat #: 60-5002) and an irrelevant fluorescein isothiocyanate (“FITC”) mouse IgG1 isotype control antibody (BD Pharmingen, San Diego, Calif., Cat#: 554679) were used as controls. The wells of aptamer/cell mixture were incubated at room temperature for 20-30 minutes. […]\nas §1"}}, "note": "Strand notation (5' to 3'): a small letter for the sugar, then the base; units joined by * are phosphorothioate-linked, units joined directly phosphodiester-linked; [ ] holds rarer units or linkages, { } end groups; capitals alone tell only the bases. {NH2} = amine modification, hexylamine terminal group for chemical coupling; [invdT] = inverted (3'-3') thymidine; d = 2'-deoxy (DNA); m = 2'-O-methyl; r = 2'-OH (RNA); f = 2'-fluoro", "data": [{"molecule": "CC(=O)O[C@@]12CO[C@@H]1C[C@H](O)[C@@]1(C)C(=O)[C@H](O)C3=C(C)[C@@H](OC(=O)[C@H](O)[C@@H](NC(=O)OC(C)(C)C)c4ccccc4)C[C@@](O)([C@@H](OC(=O)c4ccccc4)[C@H]21)C3(C)C", "note": "[Taxotere, docetaxel]", "values": [{"measurement": "survival advantage over control group (mitoxantrone and prednisone)", "setting": "[1]", "result": "approximately 2.5 months"}]}, {"molecule": "NH2-mCmGmGmAfCfCmGAAfCAmAmGmGmCfCfUGAfCfUfUfCfUAfUAfCfUAAmGmCmCmUAfCmGfUmUmCmCmG-3T ({NH2}-mCmGmGmAfCfCmGrArAfCrAmAmGmGmCfCfUrGrAfCfUfUfCfUrAfUrAfCfUrArAmGmCmCmUrAfCmGfUmUmCmCmG[invdT]; further chemistry not fully specified) [ARC1113, ribo-containing aptamer based on ARC 591 with fully-stabilized helical stems and a 3′-cap]", "values": [{"measurement": "half life (T1/2) in plasma", "setting": "[2]", "result": 20, "unit": "h"}]}, {"molecule": "mCmGmGmAfCfCmGdAdAfCmAmAmGmGmCfCfU-s-dGmAfCfUfUfCfUmAfUmAfCfUdAmAmGmCmCmUmAfCmGfUmUmCmCmG-3T (mCmGmGmAfCfCmGdAdAfCmAmAmGmGmCfCfU*dGmAfCfUfUfCfUmAfUmAfCfUdAmAmGmCmCmUmAfCmGfUmUmCmCmG[invdT]) [ARC1725, ribo-free version based on ARC591]", "values": [{"measurement": "activity in the NAALADase inhibition assay", "setting": "[3]", "result": "retained full activity"}, {"measurement": "half life (T1/2) in plasma", "setting": "[2]", "result": 11, "unit": "h"}]}, {"molecule": "B1", "values": [{"measurement": "binding to LNCaP (PSMA+) cells", "setting": "[4]", "result": "binding to LNCaP (PSMA+) cells"}, {"measurement": "binding to PC-3 (PSMA−) cells", "setting": "[5]", "result": "not to PC-3 (PSMA−) cells"}]}]}
